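Interpolation was linear, between the two tested concentrations surrounding the appropriate level; five concentrations were tested over 48 hours in 96-well plates. GI50 is the concentration that inhibits growth by half. Definition used: TGI = concentration required for complete inhibition of growth.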
Tests used:
Experiment in all cases: NCI tumour cell line growth inhibition, 48 h
OVCAR-3 ovarian = tested on: OVCAR-3 ovarian
786-0 renal = tested on: 786-0 renal
NCI-H226 lung = tested on: NCI-H226 lung
SN12C renal = tested on: SN12C renal
BT-549 breast = tested on: BT-549 breast
MDA-MB-435 = tested on: MDA-MB-435
T-47D breast = tested on: T-47D breast
K-562 leukemia = tested on: K-562 leukemia
TK-10 renal = tested on: TK-10 renal
UACC-257 melanoma = tested on: UACC-257 melanoma

| SMILES | TGI (OVCAR-3 ovarian) [µM] | TGI (786-0 renal) [µM] | TGI (NCI-H226 lung) [µM] | TGI (SN12C renal) [µM] | TGI (BT-549 breast) [µM] | TGI (MDA-MB-435) [µM] | TGI (T-47D breast) [µM] | TGI (K-562 leukemia) [µM] | TGI (TK-10 renal) [µM] | TGI (UACC-257 melanoma) [µM] | GI50 (SN12C renal) [µM] |
| --- | --- | --- | --- | --- | --- | --- | --- | --- | --- | --- | --- |
| Cc1cn(CC(=S)NCCc2c[nH]c3ccccc23)c(=O)[nH]c1=O | > 100 | > 100 | > 100 | > 100 | > 100 | > 100 | > 100 | > 100 | – | – | – |
| COc1nc(=O)[nH]c2c1C(c1ccc([N+](=O)[O-])cc1)c1c(OC)nc(=O)[nH]c1O2 | > 100 | > 100 | > 100 | > 100 | > 100 | > 100 | – | – | > 100 | > 100 | – |
| CC(C)CCNC(=O)c1ccc(CNC(=O)/C=C/c2ccc3ccccc3c2)cc1 | > 100 | > 100 | > 100 | > 100 | – | > 100 | > 100 | > 100 | – | > 100 | – |
| C=C1N(C)c2ccc(S(=O)(=O)c3ccc4c(c3)C(C)(C)C(=C)N4C)cc2C1(C)C | > 100 | > 100 | > 100 | > 100 | 87.9 | > 100 | > 100 | – | > 100 | > 100 | – |
| N#CCCC(C#N)(C#N)CCC#N | > 100 | > 100 | > 100 | > 100 | – | – | – | > 100 | > 100 | > 100 | – |
| COc1ccccc1N1CCN(S(=O)(=O)c2ccc(Cl)cc2)C1=N | > 100 | > 100 | – | > 100 | > 100 | > 100 | > 100 | > 100 | > 100 | > 100 | – |
| O=c1cccccc1[O-].O=c1cccccc1[O-].O=c1cccccc1[O-].[Nd+3] | 38.2 | > 100 | > 100 | > 100 | – | – | – | > 100 | > 100 | > 100 | 35.6 |
| COP12(OC)NC(=O)OC1(C(F)(F)F)c1ccccc1O2 (configuration not stated) | > 100 | > 100 | > 100 | > 100 | – | – | – | > 100 | > 100 | > 100 | – |
| Cc1c2c(n3c(nc4ccccc43)c1C#N)N(c1ccc(F)cc1)CC2 | > 100 | > 100 | > 100 | > 100 | > 100 | > 100 | – | – | > 100 | > 100 | – |
| Cc1n[nH]c(=O)n1/N=C/c1ccco1 | > 100 | > 100 | > 100 | > 100 | > 100 | > 100 | > 100 | > 100 | – | > 100 | – |
| Cc1ccccc1N(CCC#N)C1=NN(C(=O)CC(=O)Nc2ccc(Cl)cc2)C(c2ccccc2)C1 (configuration not stated) | > 100 | > 100 | > 100 | > 100 | – | – | – | > 100 | – | > 100 | – |
| COc1cc(C2C(C(=O)NCc3ccccc3)=C(C)NC(C)=C2C(=O)NCc2ccccc2)ccc1O | > 100 | > 100 | > 100 | > 100 | – | – | – | > 100 | > 100 | > 100 | – |
| CCOC(=O)c1ccc(N=C2Sc3nc4ccccc4n3C2=Nc2ccc(C(=O)OCC)cc2)cc1 | 53.4 | 24.5 | 73.8 | > 100 | – | > 100 | > 100 | – | 32.6 | > 100 | – |

Reference: PubChem BioAssay (NCI)
